± gives the expanded uncertainty stated by the source.
Experiment: xn = mol fraction of the nth substance listed
Conditions: 332.94 K, Liquid, Vibrating tube method

Work on `CCCCCCCCCC` [decane] + O=C=O yielded a mass density (3024 kPa, x2 = 0.0551) of 703.63 ± 0.55 kg/m3, a mass density (4011 kPa, x2 = 0.0551) of 704.59 ± 0.55 kg/m3 and a mass density (5026 kPa, x2 = 0.2369) of 711.09 ± 0.52 kg/m3. For the same molecule, the mass density (5040 kPa, x2 = 0.0551) was 705.62 ± 0.56 kg/m3, the mass density (6015 kPa, x2 = 0.2369) was 712.23 ± 0.52 kg/m3 and the mass density (6062 kPa, x2 = 0.0551) was 706.62 ± 0.56 kg/m3. For the same molecule, the mass density (7009 kPa, x2 = 0.0551) was 707.53 ± 0.56 kg/m3, the mass density (7015 kPa, x2 = 0.4536) was 721.74 ± 0.49 kg/m3 and the mass density (7019 kPa, x2 = 0.2369) was 713.38 ± 0.53 kg/m3. It also gave a mass density (7978 kPa, x2 = 0.0551) of 708.43 ± 0.57 kg/m3, a mass density (8020 kPa, x2 = 0.2369) of 714.47 ± 0.53 kg/m3 and a mass density (8025 kPa, x2 = 0.4536) of 723.26 ± 0.5 kg/m3. For the same molecule, the mass density (9016 kPa, x2 = 0.4536) was 724.72 ± 0.5 kg/m3, the mass density (9017 kPa, x2 = 0.2369) was 715.56 ± 0.54 kg/m3 and the mass density (9037 kPa, x2 = 0.0551) was 709.44 ± 0.57 kg/m3. For the same molecule, the mass density (9992 kPa, x2 = 0.0551) was 710.31 ± 0.58 kg/m3, the mass density (10015 kPa, x2 = 0.2369) was 716.65 ± 0.54 kg/m3 and the mass density (10023 kPa, x2 = 0.4536) was 726.15 ± 0.6 kg/m3. It also gave a mass density (11009 kPa, x2 = 0.2369) of 717.69 ± 0.54 kg/m3, a mass density (11014 kPa, x2 = 0.4536) of 727.55 ± 0.51 kg/m3 and a mass density (11032 kPa, x2 = 0.0551) of 711.27 ± 0.58 kg/m3. For the same molecule, the mass density (12001 kPa, x2 = 0.4536) was 728.9 ± 0.51 kg/m3, the mass density (12005 kPa, x2 = 0.9663) was 511.9 ± 1.4 kg/m3 and the mass density (12013 kPa, x2 = 0.0551) was 712.13 ± 0.58 kg/m3. It also gave a mass density (12015 kPa, x2 = 0.2369) of 718.74 ± 0.55 kg/m3, a mass density (12511 kPa, x2 = 0.9663) of 544.43 ± 1.4 kg/m3 and a mass density (13003 kPa, x2 = 0.9663) of 571.24 ± 1.1 kg/m3. For the same molecule, the mass density (13015 kPa, x2 = 0.2369) was 719.76 ± 0.55 kg/m3, the mass density (13027 kPa, x2 = 0.0551) was 713.03 ± 0.59 kg/m3 and the mass density (13045 kPa, x2 = 0.4536) was 730.28 ± 0.52 kg/m3. It also gave a mass density (13998 kPa, x2 = 0.4536) of 731.55 ± 0.52 kg/m3, a mass density (14011 kPa, x2 = 0.2369) of 720.77 ± 0.56 kg/m3 and a mass density (14015 kPa, x2 = 0.9663) of 614.37 ± 0.98 kg/m3. The mass density (14018 kPa, x2 = 0.0551) was 713.89 ± 0.59 kg/m3, the mass density (15000 kPa, x2 = 0.4536) was 732.81 ± 0.52 kg/m3 and the mass density (15003 kPa, x2 = 0.2369) was 721.75 ± 0.56 kg/m3. The mass density (15021 kPa, x2 = 0.0551) was 714.75 ± 0.6 kg/m3, the mass density (15026 kPa, x2 = 0.9663) was 648.23 ± 0.86 kg/m3 and the mass density (15997 kPa, x2 = 0.0551) was 715.59 ± 0.6 kg/m3. It also gave a mass density (16019 kPa, x2 = 0.2369) of 722.73 ± 0.57 kg/m3, a mass density (16032 kPa, x2 = 0.4536) of 734.14 ± 0.53 kg/m3 and a mass density (16035 kPa, x2 = 0.9663) of 674.85 ± 0.77 kg/m3. It also gave a mass density (16998 kPa, x2 = 0.0551) of 716.44 ± 0.61 kg/m3, a mass density (17015 kPa, x2 = 0.2369) of 723.7 ± 0.57 kg/m3 and a mass density (17018 kPa, x2 = 0.4536) of 735.36 ± 0.53 kg/m3. For the same molecule, the mass density (17018 kPa, x2 = 0.9663) was 695.62 ± 0.71 kg/m3, the mass density (18016 kPa, x2 = 0.9663) was 713.48 ± 0.67 kg/m3 and the mass density (18021 kPa, x2 = 0.4536) was 736.57 ± 0.54 kg/m3. For the same molecule, the mass density (18026 kPa, x2 = 0.2369) was 724.66 ± 0.58 kg/m3, the mass density (18031 kPa, x2 = 0.0551) was 717.29 ± 0.61 kg/m3 and the mass density (19002 kPa, x2 = 0.9663) was 728.62 ± 0.64 kg/m3. The mass density (19004 kPa, x2 = 0.0551) was 718.07 ± 0.62 kg/m3, the mass density (19012 kPa, x2 = 0.4536) was 737.79 ± 0.54 kg/m3 and the mass density (19022 kPa, x2 = 0.2369) was 725.6 ± 0.58 kg/m3. It also gave a mass density (20002 kPa, x2 = 0.0551) of 718.88 ± 0.62 kg/m3, a mass density (20002 kPa, x2 = 0.4536) of 738.93 ± 0.55 kg/m3 and a mass density (20012 kPa, x2 = 0.2369) of 726.51 ± 0.58 kg/m3. For the same molecule, the mass density (20033 kPa, x2 = 0.9663) was 742.59 ± 0.62 kg/m3, the mass density (21014 kPa, x2 = 0.0551) was 719.68 ± 0.63 kg/m3 and the mass density (21022 kPa, x2 = 0.9663) was 754.63 ± 0.61 kg/m3. For the same molecule, the mass density (21024 kPa, x2 = 0.2369) was 727.44 ± 0.59 kg/m3, the mass density (21028 kPa, x2 = 0.4536) was 740.14 ± 0.55 kg/m3 and the mass density (22021 kPa, x2 = 0.2369) was 728.35 ± 0.59 kg/m3. For the same molecule, the mass density (22021 kPa, x2 = 0.4536) was 741.29 ± 0.56 kg/m3, the mass density (22027 kPa, x2 = 0.0551) was 720.5 ± 0.63 kg/m3 and the mass density (22029 kPa, x2 = 0.9663) was 765.58 ± 0.59 kg/m3. It also gave a mass density (23009 kPa, x2 = 0.4536) of 742.44 ± 0.56 kg/m3 and a mass density (23010 kPa, x2 = 0.2369) of 729.26 ± 0.6 kg/m3.
